Columns and labels:
[1] = test system: Neural-mapped xenograft models; test: Survival of drug-treated GBM mouse xenografts vs control, Neural-mapped; type: in vivo; details: Neural subtype, total 3 xenografts; for frequency of xenograft models with survival difference NS (statistically Not Significant): Cox regression; for frequency of xenograft models with significantly longer survival than control (treatment-sensitive) / frequency of xenograft models with significantly shorter survival than control (treatment-resistant): Cox regression p-value threshold 0.05
Protocol: (§1) Forty GBM mouse xenografts were used. […] These xenografts were also mapped to the four molecular subtypes: proneural, neural, classical, and mesenchymal.
(§2) Characterizing drug responsiveness for GBM subtypes using the mapped xenografts: Out of 40 xenograft models, 21 models were treated with 4 different treatments and their survival rates were compared against control groups.

[2] = test system: Proneural-mapped xenografts; test: Survival of drug-treated GBM mouse xenografts vs control, Proneural-mapped; type: in vivo; details: Proneural subtype, total 2 xenografts; for frequency of xenograft models with survival difference NS (statistically Not Significant): Cox regression; for frequency of xenograft models with significantly longer survival than control (treatment-sensitive) / frequency of xenograft models with significantly shorter survival than control (treatment-resistant): Cox regression p-value threshold 0.05
Protocol: as §1, §2

[3] = test system: Classical-mapped xenograft models; test: Survival of drug-treated GBM mouse xenografts vs control, Classical-mapped; details: for frequency of xenograft models with survival difference NS (statistically Not Significant) / frequency of xenograft models with significantly longer survival than control (treatment-sensitive) / frequency of xenograft models with significantly shorter survival than control (treatment-resistant): Classical subtype, total 2 xenografts; for frequency of xenograft models with survival difference NS (statistically Not Significant): Cox regression; for frequency of xenograft models with significantly longer survival than control (treatment-sensitive) / frequency of xenograft models with significantly shorter survival than control (treatment-resistant): Cox regression p-value threshold 0.05
Protocol: as §1, §2

[4] = test system: Mesenchymal-mapped xenograft models; test: Survival of drug-treated GBM mouse xenografts vs control, Mesenchymal-mapped; details: for frequency of xenograft models with survival difference NS (statistically Not Significant) / frequency of xenograft models with significantly longer survival than control (treatment-sensitive) / frequency of xenograft models with significantly shorter survival than control (treatment-resistant): Mesenchymal subtype, total 4 xenografts; for frequency of xenograft models with survival difference NS (statistically Not Significant): Cox regression; for frequency of xenograft models with significantly longer survival than control (treatment-sensitive) / frequency of xenograft models with significantly shorter survival than control (treatment-resistant): Cox regression p-value threshold 0.05; for subtype-specific drug response (sensitivity or resistance): Mesenchymal-mapped xenograft models, survival analysis
Protocol: as §1, §2

Cn1c(=O)n(-c2ccc(C(C)(C)C#N)cc2)c2c3cc(-c4cnc5ccccc5c4)ccc3ncc21 [BEZ235]
frequency of xenograft models with survival difference NS (statistically Not Significant) [1]: 3
frequency of xenograft models with significantly longer survival than control (treatment-sensitive) [1]: 0
frequency of xenograft models with significantly shorter survival than control (treatment-resistant) [1]: 0
frequency of xenograft models with survival difference NS (statistically Not Significant) [2]: 1
frequency of xenograft models with significantly longer survival than control (treatment-sensitive) [2]: 1
frequency of xenograft models with significantly shorter survival than control (treatment-resistant) [2]: 0
frequency of xenograft models with survival difference NS (statistically Not Significant) [3]: 2
frequency of xenograft models with significantly longer survival than control (treatment-sensitive) [3]: 0
frequency of xenograft models with significantly shorter survival than control (treatment-resistant) [3]: 0
frequency of xenograft models with survival difference NS (statistically Not Significant) [4]: 3
frequency of xenograft models with significantly longer survival than control (treatment-sensitive) [4]: 0
frequency of xenograft models with significantly shorter survival than control (treatment-resistant) [4]: 1
subtype-specific drug response (sensitivity or resistance) [4]: resistance

CNC(=O)c1cc(Oc2ccc(NC(=O)Nc3ccc(Cl)c(C(F)(F)F)c3)cc2)ccn1 [Sorafenib, sorafenib]
frequency of xenograft models with survival difference NS (statistically Not Significant) [1]: 3
frequency of xenograft models with significantly longer survival than control (treatment-sensitive) [1]: 0
frequency of xenograft models with significantly shorter survival than control (treatment-resistant) [1]: 0
frequency of xenograft models with survival difference NS (statistically Not Significant) [2]: 1
frequency of xenograft models with significantly longer survival than control (treatment-sensitive) [2]: 1
frequency of xenograft models with significantly shorter survival than control (treatment-resistant) [2]: 0
frequency of xenograft models with survival difference NS (statistically Not Significant) [3]: 1
frequency of xenograft models with significantly longer survival than control (treatment-sensitive) [3]: 0
frequency of xenograft models with significantly shorter survival than control (treatment-resistant) [3]: 1
subtype-specific drug response (sensitivity or resistance) ([3]; Classical-mapped xenograft models, survival analysis): resistance
frequency of xenograft models with survival difference NS (statistically Not Significant) [4]: 1
frequency of xenograft models with significantly longer survival than control (treatment-sensitive) [4]: 1
frequency of xenograft models with significantly shorter survival than control (treatment-resistant) [4]: 2
subtype-specific drug response (sensitivity or resistance) [4]: resistance

Cn1nnc2c(C(N)=O)ncn2c1=O [TMZ, temozolomide]
frequency of xenograft models with survival difference NS (statistically Not Significant) [1]: 2
frequency of xenograft models with significantly longer survival than control (treatment-sensitive) [1]: 1
frequency of xenograft models with significantly shorter survival than control (treatment-resistant) [1]: 0
frequency of xenograft models with survival difference NS (statistically Not Significant) [2]: 1
frequency of xenograft models with significantly longer survival than control (treatment-sensitive) [2]: 1
frequency of xenograft models with significantly shorter survival than control (treatment-resistant) [2]: 0
frequency of xenograft models with survival difference NS (statistically Not Significant) [3]: 1
frequency of xenograft models with significantly longer survival than control (treatment-sensitive) [3]: 1
frequency of xenograft models with significantly shorter survival than control (treatment-resistant) [3]: 0
frequency of xenograft models with survival difference NS (statistically Not Significant) [4]: 2
frequency of xenograft models with significantly longer survival than control (treatment-sensitive) [4]: 2
frequency of xenograft models with significantly shorter survival than control (treatment-resistant) [4]: 0

From US20130237444A1, “GBM MOLECULAR CONTEXTS ASSOCIATED WITH PATIENT SURVIVAL” (Translational Genomics Research Institute, priority 2012, published 2013)
